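Interpolation was linear, between the two tested concentrations surrounding the appropriate level; five concentrations were tested over 48 hours in 96-well plates. GI50 = concentration required for 50% inhibition of growth.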 Activity calls are given as the source filed them. No stated cut-off is given here; in the data, active = GI50 up to about 1.1 µM and inactive = higher.
Legend:
Test in all cases: DTP human tumour cell line panel, 48 h
[1] = test system: 786-0
[2] = test system: A498
[3] = test system: A549
[4] = test system: ACHN
[5] = test system: BT-549
[6] = test system: CAKI-1
[7] = test system: CCRF-CEM
[8] = test system: COLO 205
[9] = test system: DU-145
[10] = test system: EKVX
[11] = test system: HCC 2998
[12] = test system: HCT-116
[13] = test system: HCT-15
[14] = test system: HL-60
[15] = test system: HOP-62
[16] = test system: HOP-92
[17] = test system: HT-29
[18] = test system: Hs-578T
[19] = test system: IGROV-1
[20] = test system: K562
[21] = test system: KM12
[22] = test system: LOX IMVI
[23] = test system: M14
[24] = test system: MCF7
[25] = test system: MDA-MB-231
[26] = test system: MDA-MB-435
[27] = test system: MDA-N
[28] = test system: MOLT-4
[29] = test system: Malme-3M
[30] = test system: NCI-H226
[31] = test system: NCI-H23
[32] = test system: NCI-H460
[33] = test system: NCI-H522
[34] = test system: NCI/ADR-RES
[35] = test system: OVCAR-3
[36] = test system: OVCAR-4
[37] = test system: OVCAR-5
[38] = test system: OVCAR-8
[39] = test system: PC-3
[40] = test system: RPMI-8226
[41] = test system: RXF 393
[42] = test system: SF-268
[43] = test system: SF-295
[44] = test system: SF-539
[45] = test system: SK-MEL-28
[46] = test system: SK-MEL-2
[47] = test system: SK-MEL-5
[48] = test system: SK-OV-3
[49] = test system: SN12C
[50] = test system: SNB-19
[51] = test system: SNB-75
[52] = test system: SR
[53] = test system: SW-620
[54] = test system: T47D
[55] = test system: TK-10
[56] = test system: U-251
[57] = test system: UACC-257
[58] = test system: UACC-62
[59] = test system: UO-31

CCCCCCc1cc2cc(-c3cn4ccccc4n3)c(=O)oc2cc1O
GI50 [1]: 2.12 µM (inactive) | GI50 [2]: 20.1 µM (inactive) | GI50 [3]: 16.5 µM (inactive) | GI50 [4]: 18 µM (inactive) | GI50 [5]: 10.1 µM (inactive) | GI50 [6]: 4.67 µM (inactive) | GI50 [7]: 19.5 µM (inactive) | GI50 [8]: > 100 µM (inactive) | GI50 [9]: 5.11 µM (inactive) | GI50 [10]: 18.4 µM (inactive) | GI50 [11]: 18.4 µM (inactive) | GI50 [12]: 4.55 µM (inactive) | GI50 [13]: 5.66 µM | GI50 [14]: 30.7 µM (inactive) | GI50 [15]: 11.8 µM (inactive) | GI50 [16]: 15.5 µM (inactive) | GI50 [17]: > 55.8 µM (inactive) | GI50 [18]: 4.14 µM (inactive) | GI50 [19]: 11.2 µM (inactive) | GI50 [20]: 4.61 µM (inactive) | GI50 [21]: 16.1 µM (inactive) | GI50 [22]: 4.72 µM (inactive) | GI50 [23]: 5.52 µM (inactive) | GI50 [24]: 5.43 µM (inactive) | GI50 [25]: 3.27 µM (inactive) | GI50 [26]: 5.24 µM (inactive) | GI50 [27]: 6.17 µM (inactive) | GI50 [28]: 7.91 µM (inactive) | GI50 [29]: 1.71 µM (inactive) | GI50 [30]: 19.1 µM (inactive) | GI50 [31]: 5.66 µM (inactive) | GI50 [32]: 15 µM (inactive) | GI50 [33]: 5.37 µM (inactive) | GI50 [34]: 5.26 µM (inactive) | GI50 [35]: 4.38 µM (inactive) | GI50 [36]: 4.66 µM (inactive) | GI50 [37]: 21.8 µM (inactive) | GI50 [38]: 6.3 µM (inactive) | GI50 [39]: 18.7 µM (inactive) | GI50 [40]: 3.68 µM (inactive) | GI50 [41]: 4.14 µM (inactive) | GI50 [42]: 2.32 µM (inactive) | GI50 [43]: 15.1 µM (inactive) | GI50 [44]: 2.76 µM (inactive) | GI50 [45]: 9.14 µM (inactive) | GI50 [46]: 13.6 µM (inactive) | GI50 [47]: 8.95 µM (inactive) | GI50 [48]: 13.6 µM (inactive) | GI50 [49]: 5.35 µM (inactive) | GI50 [50]: 13.2 µM (inactive) | GI50 [51]: 3.14 µM (inactive) | GI50 [52]: 5.57 µM (inactive) | GI50 [53]: 9.93 µM (inactive) | GI50 [54]: 19.2 µM (inactive) | GI50 [55]: 15.5 µM (inactive) | GI50 [56]: 3.56 µM (inactive) | GI50 [57]: 18.1 µM (inactive) | GI50 [58]: 8.17 µM (inactive) | GI50 [59]: 8.39 µM (inactive)

From ChEMBL document CHEMBL1201862, “PubChem BioAssay data set” (2004)
